Assay results as given in PubChem BioAssay (NCI).
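Each compound was tested at five concentrations against cells in 96-well plates for 48 hours. TGI: concentration producing complete growth inhibition.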

Test system: P388 leukemia
Test: NCI tumour cell line growth inhibition, 48 h

CO[C@@]12[C@H](COC(N)=O)C3=C(C(=O)C(C)=C(N)C3=O)N1C[C@@H]1N[C@@H]12
TGI: 9.62 µM
